According to paper PMC3514216, “SRC Homology 2 Domain Binding Sites in Insulin, IGF-1 and FGF receptor mediated signaling networks reveal an extensive potential interactome” (Cell Communication and Signaling : CCS, 2012):
Residue numbers refer to the chain shown, from its start. Where two headings read alike, the source gives them in different places.

Key:
[1] = target: T1, Ptpn11_N SH2 domain (Homo sapiens, UniProt Q06124); assay: Fluorescence polarization solution binding; conditions: Rhodamine B-labeled peptide, GST-SH2, Beacon 2000, read-out: Affinity (KD)
T1 sequence (Q06124 6-102 limits assumed): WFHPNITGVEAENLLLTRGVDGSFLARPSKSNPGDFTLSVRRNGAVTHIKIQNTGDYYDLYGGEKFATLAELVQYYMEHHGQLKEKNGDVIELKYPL
Excerpt: (§1) To verify the binding results obtained from addressable peptide arrays we employed an orthogonal method of determining SH2 interactions with peptide ligands. We measured the dissociation constants of 60 binary SH2-peptide pairs in solution by fluorescence polarization (Table 2, Additional file 2: Figures S3A-C).
(§2) Peptides were synthesized using FMOC-chemistry onto pre-loaded tenta-gel resins. Peptides were then labeled with Rhodamine B (Abbey Color) and then cleaved using trifluoroacetic acid. Peptides were lyophilized and then purified using a LC/MS (Agilent 2100). Dissociation constants were measured using the Beacon 2000 (Invitrogen) as previously described.
(§3) Binding Affinities determined by Fluorescence Polarization. Rhodamine B-labeled peptides were mixed with varying concentrations of GST-tagged SH2 domains. Fluorescence polarization measurements were read on a Beacon 2000 (Invitrogen). The curves were fit to a Michaelis-Menten equation to calculate the dissociation constant, KD. […] (C) Affinity measurements that fell below the 2X mean intensity and were considered array negative on the SPOT array.

[2] = target: T2, CrkL SH2 domain (Homo sapiens, UniProt P46109); assay: Fluorescence polarization solution binding; conditions: Rhodamine B-labeled peptide, GST-SH2, Beacon 2000, read-out: Affinity (KD)
Excerpt: as §1, §2, §3

[3] = target: T3, Crk SH2 domain (Homo sapiens, UniProt P46108); parameters: method as in earlier work; conditions: SH2 protein microarray; N.B. = non binding; read-out: Protein Microarray (Macbeath) – KD; cited from earlier work
[4] = test system: Fyn SH2 domain; assay: SPOT peptide array; format: binding; conditions: GST-SH2 0.25 μM
Excerpt: (§4) The use of addressable peptide arrays is a reproducible and semi-quantitative approach that has been extensively validated for studying protein interactions with peptide ligands. To investigate connections between SH2 domain proteins and their putative phosphorylated docking sites on cell surface receptors, we developed addressable arrays consisting of 192 phosphotyrosine peptides. This peptide set was assembled using 71 phosphotyrosine peptide motifs corresponding to all of the cytoplasmic tyrosine residues within the FGF receptors (FGFR1-4), insulin receptor (InsR) and IGF-1 receptor (IGF-1R) (Figure 1A). Activation of these receptors results in the phosphorylation of associated scaffold proteins, and so 75 phosphotyrosine peptides corresponding to a comprehensive list of tyrosine residues within insulin receptor substrates (IRS-1 and IRS-2) and fibroblast receptor substrates (FRS-2 and FRS-3) were included. In addition, 33 phosphotyrosine peptides were incorporated from the downstream signaling proteins PLC-γ1, p130Cas (BCAR1) and p62DOK1. […] These control peptides provide a reference and establish the empirical cut-off for designated binding interactions (Table 1). No discrimination was made against peptides on the basis of reported phosphorylation state in order to examine a diverse and unbiased set of motifs. The resulting set of 192 phosphotyrosine peptides and their corresponding position in the proteins of origin is noted in Additional file 1: Table S1. Addressable arrays were synthesized as membrane-bound 11-mer peptides using the SPOT synthesis technique. While the majority of SH2 domains recognize residues C-terminal to the phosphotyrosine in their cognate peptide ligands, additional contacts between SH2 domains and residues N-terminal to the phosphotyrosine are observed for the SH2 domain of Sh2d1a (SAP) and cannot be ruled out in other cases. Peptides were synthesized with six flanking residues C-terminal to the phosphotyrosine and four residues N-terminal to the phosphotyrosine.
(§5) SH2 domains were arrayed as GST fusion proteins and detected using anti-GST primary antibodies and near-infrared labeled secondary antibodies. In an effort to present a dataset with minimal false positives, we chose an empirical cutoff based on the array average across all peptide spots to classify interactions (Figure 1A). In cases where the intensity of the signal for an individual SH2-domain binding event exceeded the mean intensity of all the peptides on the membrane by three-fold were scored as “array positives” [22]. Non-binding was judged in cases where the intensity of a spot was less than the mean intensity of all spots on the membrane and these were scored as “array negatives”. Peptides with signal intensities between 1X and 3X mean were scored as “indeterminate” and ascribed as neither array positive binding interactions nor array-negative non-binders. […] This signature may be indicative of promiscuity differences between phosphopeptides or there may be a subset of peptides which interact in a nonspecific fashion with either the GST fusion tag or one of the antibodies used for detection, resulting in false positives. Consistent with our goal of reducing the errors associated with identifying false-positives, we probed three separate arrays with three separate preps of the GST fusion tag alone. Potentially non-specificly interacting peptides (so-called ‘sticky’ peptides) were identified as any that bound to GST with above mean intensity in two out of three separate trials. This approach identifies any peptides which interact with GST or either of the recognition antibodies, a known confounding factor for downstream analysis. This conservative approach allows us to score many significant peptides as ‘binders’ which may have been indeterminate before when incorporating the ‘sticky’ peptides into the array average. […]

[5] = test system: Ptpn11_C SH2 domain; assay: SPOT peptide array; format: binding; conditions: GST-SH2 0.25 μM
Excerpt: as §4, §5

[6] = target: T1, Ptpn11_N SH2 domain; assay: SPOT peptide array; format: binding; conditions: GST-SH2 0.25 μM
Excerpt: as §4, §5

[7] = target: T4, Abl1 SH2 domain (Homo sapiens, UniProt P00519); assay: SPOT peptide array; format: binding; conditions: GST-SH2 0.25 μM, membrane-bound peptide, 1 mM DTT, LiCor read-out
T4 sequence (P00519 127-217 limits assumed): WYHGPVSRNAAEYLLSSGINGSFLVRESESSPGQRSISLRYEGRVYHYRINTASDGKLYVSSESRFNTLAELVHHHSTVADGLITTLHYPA
Excerpt: as §4, §5

[8] = target: Nck1 SH2 domain (Homo sapiens, UniProt P16333); assay: SPOT peptide array; format: binding; conditions: GST-SH2 0.25 μM, membrane-bound peptide, 1 mM DTT, LiCor read-out
Excerpt: as §4, §5

[9] = test system: panel of 50 SH2 domains; assay: SPOT peptide array probed with each of 50 GST-SH2 domains; format: binding; conditions: SH2 domains with intensity >3X array mean; GST-SH2 0.25 μM, 1 mM DTT
How it was run: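 Membrane SPOT arrays of 192 phosphotyrosine 11-mer peptides (four residues N-terminal, six C-terminal to pTyr) probed with GST-SH2 fusions, detected by anti-GST plus near-infrared secondary antibody. Spots >3-fold array mean scored positive, below mean negative, 1–3× indeterminate; peptides binding GST alone above mean in two of three trials flagged as sticky.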

[10] = target: Grb2 SH2 domain (Homo sapiens, UniProt P62993); parameters: method as in earlier work; conditions: SH2 protein microarray; N.B. = non binding; read-out: Protein Microarray (Macbeath) – KD; cited from earlier work
[11] = target: T5, Abl2 SH2 domain (Homo sapiens, UniProt P42684); parameters: method as in earlier work; conditions: SH2 protein microarray; N.B. = non binding; read-out: Protein Microarray (Macbeath) – KD; cited from earlier work
T5 sequence (P42684 173-263 limits assumed): T4 sequence (P00519 127-217 limits assumed) with N9S, G18L, R35L, A53T, S54A, L58V, S61T, S62A, N67S, I84V

[12] = target: T6, PI3K1_N SH2 domain (Homo sapiens, UniProt P27986); assay: SPOT peptide array; format: binding; conditions: GST-SH2 0.25 μM, membrane-bound peptide, 1 mM DTT, LiCor read-out
Excerpt: as §4, §5

[13] = target: T6, PI3K1_N SH2 domain; parameters: method as in PMID 8384875; conditions: cited from earlier work
[14] = test system: Plcγ SH2 domain (N or C not specified); assay: SPOT peptide array; format: binding; conditions: GST-SH2 0.25 μM, membrane-bound peptide, 1 mM DTT, LiCor read-out
Excerpt: as §4, §5

[15] = test system: Plcγ-C SH2 domain; assay: SPOT peptide array; format: binding; conditions: spot intensity as factor of array mean; GST-SH2 0.25 μM
Excerpt: as §4, §5

[16] = test system: Plcγ-N SH2 domain; assay: SPOT peptide array; format: binding; conditions: spot intensity as factor of array mean; GST-SH2 0.25 μM
Excerpt: as §4, §5

[17] = target: Shb SH2 domain (Homo sapiens, UniProt Q15464); assay: SPOT peptide array; format: binding; conditions: GST-SH2 0.25 μM
Excerpt: as §4, §5

[18] = target: T5, Abl2 SH2 domain; assay: SPOT peptide array; format: binding; conditions: spot intensity as factor of array mean; GST-SH2 0.25 μM
Excerpt: as §4, §5

[19] = target: T3, Crk SH2 domain; assay: SPOT peptide array; format: binding; conditions: spot intensity as factor of array mean; GST-SH2 0.25 μM
Excerpt: as §4, §5

[20] = target: T2, CrkL SH2 domain; assay: SPOT peptide array; format: binding; conditions: spot intensity as factor of array mean; GST-SH2 0.25 μM
Excerpt: as §4, §5

[21] = target: T2, CrkL SH2 domain; parameters: method as in earlier work; conditions: SH2 protein microarray; N.B. = non binding; read-out: Protein Microarray (Macbeath) – KD; cited from earlier work
[22] = target: Sh2b SH2 domain (Homo sapiens, UniProt Q9NRF2); assay: SPOT peptide array; format: binding; conditions: GST-SH2 0.25 μM
Excerpt: as §4, §5

[23] = membrane-bound peptide, 1 mM DTT, LiCor read-out
[24] = spot intensity as factor of array mean

T3 sequence (P46108 13-118 limits assumed): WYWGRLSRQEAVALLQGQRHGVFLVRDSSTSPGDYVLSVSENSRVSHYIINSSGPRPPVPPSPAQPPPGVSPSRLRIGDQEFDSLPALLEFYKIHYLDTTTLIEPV
T2 sequence (P46109 14-102 limits assumed): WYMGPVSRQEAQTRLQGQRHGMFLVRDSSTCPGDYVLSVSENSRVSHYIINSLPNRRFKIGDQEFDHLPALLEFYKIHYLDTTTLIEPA
Shb SH2 domain, sequence (Q15464 410-504 limits assumed): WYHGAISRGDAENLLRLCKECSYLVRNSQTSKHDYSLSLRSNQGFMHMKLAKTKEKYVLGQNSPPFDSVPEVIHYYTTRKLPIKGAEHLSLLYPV
T6 sequence (P27986 333-428 limits assumed): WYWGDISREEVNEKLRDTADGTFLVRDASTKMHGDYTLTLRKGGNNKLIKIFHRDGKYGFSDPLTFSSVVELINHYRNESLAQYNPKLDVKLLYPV
Grb2 SH2 domain, sequence (P62993 60-152 limits assumed): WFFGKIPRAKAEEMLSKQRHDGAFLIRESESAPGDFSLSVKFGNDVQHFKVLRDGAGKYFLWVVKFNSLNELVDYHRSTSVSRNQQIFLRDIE

CC(C)[C@H](NC(=O)[C@H](CC(=O)O)NC(=O)[C@H](CCC(=O)O)NC(=O)[C@H](C)N)C(=O)N[C@@H](Cc1ccc(OP(=O)(O)O)cc1)C(=O)N[C@@H](CC(=O)O)C(=O)N[C@H](C(=O)N1CCC[C@H]1C(=O)N1CCC[C@H]1C(=O)N1CCC[C@H]1C(=O)N[C@@H](C)C(=O)O)C(C)C [AEDVpYDVPPPA]
Kd [1]: > 50000 nM

CC(C)C[C@H](NC(=O)[C@H](CCC(=O)O)NC(=O)[C@H](Cc1ccc(OP(=O)(O)O)cc1)NC(=O)[C@H](CCC(=O)O)NC(=O)[C@H](CO)NC(=O)[C@@H](NC(=O)CN)C(C)C)C(=O)N1CCC[C@H]1C(=O)N[C@@H](CCC(=O)O)C(=O)N[C@@H](CC(=O)O)C(=O)N1CCC[C@H]1C(=O)O [GVSEpYELPEDP]
Kd [2]: > 50000 nM

ARDIHHIDYpYKKTTNGRD (ARDIHHIDYYKKTTNGRD)
Kd [3]: 1110 nM

DLSApYASISFQ [11-mer phosphotyrosine peptide, IRS-1 (Y1229)]
Array positive [4, 23]: No (Peptide spots with average intensity values between 1X-3X the array mean were defined as ‘indeterminate’. Those with intensities below 1X mean were defined as array negative) | Peptide array intensity (X mean) [4, 24]: 0.48 X Mean | Array positive [5, 23]: No (Peptide spots with average intensity values between 1X-3X the array mean were defined as ‘indeterminate’. Those with intensities below 1X mean were defined as array negative) | Peptide array intensity (X mean) [5, 24]: 1.59 X Mean | Array positive [6, 23]: No (Peptide spots with average intensity values between 1X-3X the array mean were defined as ‘indeterminate’. Those with intensities below 1X mean were defined as array negative) | Peptide array intensity (X mean) [6, 24]: 2.78 X Mean

EDPIpYDEPEGL [11-mer phosphotyrosine peptide, p62DOK1 (Y362)]
Array positive [7]: Yes (Array-positive binding was ascribed to interactions with intensities greater than three times the array mean) | Array positive [8]: Yes (Array-positive binding was ascribed to interactions with intensities greater than three times the array mean) | Other SH2 domains bound (additional array-positive SH2 domains) [9]: Blk, Hck, Lck, Lyn, Shc1, Src

EIFTLGGSPpYPGVPVEED (EIFTLGGSPYPGVPVEED)
Kd [10]: 140 nM | Kd [11]: 400 nM

GSGDpYMPMSPK [11-mer phosphotyrosine peptide, printed as IRS-1 (Y612); footnote says Y632]
Array positive [12]: No (Peptide spots with average intensity values between 1X-3X the array mean were defined as ‘indeterminate’. Those with intensities below 1X mean were defined as array negative) | Relative affinity (ID50) [13]: ID50 = 0.7-1.1 μM

SNQEpYLDLSMP [11-mer phosphotyrosine peptide, FGFR1 (Y766)]
Array positive [14]: No (Peptide spots with average intensity values between 1X-3X the array mean were defined as ‘indeterminate’. Those with intensities below 1X mean were defined as array negative) | Peptide array intensity (X mean) [15]: 0.21 X Mean | Peptide array intensity (X mean) [16]: 0.52 X Mean | Array positive [17, 23]: No (Peptide spots with average intensity values between 1X-3X the array mean were defined as ‘indeterminate’. Those with intensities below 1X mean were defined as array negative) | Peptide array intensity (X mean) [17, 24]: 0.45 X Mean

SSKDLVSCApYQVARGMED
Peptide array intensity (X mean) [18]: <2x X Mean | Peptide array intensity (X mean) [19]: <2x X Mean | Peptide array intensity (X mean) [20]: <2x X Mean

SSKDLVSCApYQVARGMED (SSKDLVSCAYQVARGMED)
Kd [3]: 260 nM | Kd [11]: 12 nM | Kd [21]: 240 nM

THDLYMIMREA [11-mer peptide, FGFR3 (Y724)]
Array positive [22, 23]: No (Peptide spots with average intensity values between 1X-3X the array mean were defined as ‘indeterminate’. Those with intensities below 1X mean were defined as array negative) | Peptide array intensity (X mean) [22, 24]: 0.44 X Mean

VSEEYLDLRLT [11-mer peptide, FGFR4 (754)]
Array positive [14]: No (Peptide spots with average intensity values between 1X-3X the array mean were defined as ‘indeterminate’. Those with intensities below 1X mean were defined as array negative) | Other SH2 domains bound (additional array-positive SH2 domains) [9]: SHD
